Source: ChEMBL document CHEMBL1159161, “Synthesis and biological activities of truncated acridone: Structure-activity relationship studies of cytotoxic 5-hydroxy-4-quinolone” (Bioorg Med Chem Lett, 1997)

Tests used:
Human alphaherpesvirus 2 = test: Antiviral activity against herpes simplex virus-2.; type: functional, organism-based
Human alphaherpesvirus 1 = test: Antiviral activity against herpes simplex virus-1.; type: functional, organism-based
HL-60 = test: In vitro antitumor activity against HL60 (Human leukemia) cells.; type: functional, cell-based
L1210 = test: In vitro antitumor activity against L1210 (murine leukemia) cells.; type: functional, cell-based; details: Mus musculus

SMILES	IC50 (Human alphaherpesvirus 2) [µM]	IC50 (Human alphaherpesvirus 1) [µM]	IC50 (HL-60) [µM]	IC50 (L1210) [µM]
COc1ccc(OC)c2c(O)ccnc12	> 100	> 100	> 30	> 40
COc1cc2nccc(O)c2cc1OC	> 100	> 100	> 30	> 40
COc1ccc2c(O)ccnc2c1	> 100	> 100	> 30	> 40
COc1cc2c(c(O)c1OC)c(=O)ccn2C	> 100	> 100	> 30	> 40
COc1cc(OC)c2c(=O)ccn(C)c2c1	> 100	> 100	> 30	> 40
COc1cc(OC)c2c(=O)cc[nH]c2c1	–	–	> 30	> 40
COc1ccc(O)c2c(=O)ccn(C)c12	> 100	> 100	> 30	> 40
COc1cc2nccc(O)c2c(O)c1OC	> 100	> 100	> 30	> 40
COc1ccc(C)c2nccc(O)c12	> 100	> 100	> 30	> 40
COc1cc(C(F)(F)F)cc2nccc(O)c12	> 100	> 100	> 30	> 40
Oc1cccc2nccc(O)c12	83	54	> 30	> 40
COc1cc(C(F)(F)F)c2c(O)ccnc2c1	29.4	29.4	> 30	> 40
COc1cc2nccc(O)c2c(OC)c1OC	> 100	> 100	> 30	> 40
COc1cc2c(c(OC)c1OC)c(=O)ccn2C	> 100	> 100	> 30	> 40
COc1ccc(O)c2c(O)ccnc12	> 100	82.6	17.7	–
COc1cc2c(O)ccnc2cc1O	> 100	> 100	> 30	> 40
COc1cc2c(=O)ccn(C)c2cc1OC	> 100	> 100	> 30	> 40
COc1cc(O)c2c(O)ccnc2c1	–	–	> 30	> 40
COc1ccc(Cl)c2nccc(O)c12	> 100	> 100	> 30	> 40
Oc1ccnc2cc(C(F)(F)F)cc(O)c12	–	–	> 30	> 40
Cc1ccc(O)c2c(O)ccnc12	> 100	27.1	> 30	> 40
Nc1nc2c(ncn2COCCO)c(=O)[nH]1 [ACYCLOVIR]	2.1	0.2	–	–
Nc1ccn([C@@H]2O[C@H](CO)[C@@H](O)[C@@H]2O)c(=O)n1 [CYTARABINE]	2	0.3	–	–
COc1c(OC)c(OC)c2c(c1O)c(=O)c1ccc(O)c(OC)c1n2C [GLYFOLINE]	–	–	1.4	26.5
